{"source": "paper PMC6580095", "about": "“C8-substituted pyrido[3,4-d]pyrimidin-4(3H)-ones: Studies towards the identification of potent, cell penetrant Jumonji C domain containing histone lysine demethylase 4 subfamily (KDM4) inhibitors, compound profiling in cell-based target engagement assays” (European Journal of Medicinal Chemistry, 2019)", "key": {"[1]": {"experiment": "In vitro intrinsic microsomal clearance, rat", "conditions": "microsomes"}, "[2]": {"experiment": "In vitro intrinsic microsomal clearance, mouse", "conditions": "microsomes"}, "[3]": {"experiment": "Human plasma protein binding"}, "[4]": {"experiment": "In vitro intrinsic microsomal clearance, human", "conditions": "microsomes"}, "[5]": {"experiment": "Kinetic aqueous solubility"}, "[6]": {"system": "LNCaP cells", "experiment": "Cell uptake and stability in LNCaP cellular culture", "assay_type": "in vitro ADME, human", "conditions": "10 μM, up to 120 h"}, "[7]": {"target": "KDM5B (Homo sapiens, UniProt Q9UGL1)", "experiment": "cell-based"}, "[8]": {"system": "KDM5", "conditions": "H3K4Me3 levels in PC9 cells; cited from earlier work"}, "[9]": {"target": "T1, KDM5B (Homo sapiens, UniProt Q9UGL1)", "T1 sequence (Q9UGL1 26-772)": "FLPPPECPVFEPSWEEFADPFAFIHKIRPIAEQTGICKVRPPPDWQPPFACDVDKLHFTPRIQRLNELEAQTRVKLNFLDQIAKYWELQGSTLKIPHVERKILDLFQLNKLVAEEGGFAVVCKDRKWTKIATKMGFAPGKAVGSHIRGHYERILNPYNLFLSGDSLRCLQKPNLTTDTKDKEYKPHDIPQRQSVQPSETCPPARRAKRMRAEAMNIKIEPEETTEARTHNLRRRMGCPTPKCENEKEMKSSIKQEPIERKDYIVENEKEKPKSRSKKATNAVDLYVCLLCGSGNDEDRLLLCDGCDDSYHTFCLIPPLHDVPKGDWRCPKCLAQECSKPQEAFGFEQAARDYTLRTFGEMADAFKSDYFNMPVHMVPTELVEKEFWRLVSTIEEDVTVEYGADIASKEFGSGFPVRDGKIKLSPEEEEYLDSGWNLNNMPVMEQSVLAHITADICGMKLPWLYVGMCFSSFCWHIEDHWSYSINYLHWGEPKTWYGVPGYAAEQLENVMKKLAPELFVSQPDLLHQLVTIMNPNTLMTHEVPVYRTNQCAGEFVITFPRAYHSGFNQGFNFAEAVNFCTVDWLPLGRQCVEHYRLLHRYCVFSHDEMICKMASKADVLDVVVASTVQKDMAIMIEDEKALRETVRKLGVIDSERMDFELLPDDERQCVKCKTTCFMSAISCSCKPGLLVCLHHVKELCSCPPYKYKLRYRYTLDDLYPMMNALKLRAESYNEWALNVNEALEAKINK", "experiment": "cell-based", "remark": "listed apart in the source"}}, "note": "Where two headings read alike, the source gives them in different places."}
{"smiles": "O=c1[nH]cnc2c(-n3cc(CCN4CCC5(CCc6ccccc65)CC4)cn3)nccc12", "note": "[Compound 19a, 8-(4-(2-(2,3-Dihydrospiro[indene-1,4′-piperidin]-1′-yl)ethyl)-1H-pyrazol-1-yl)pyrido[3,4-d]pyrimidin-4(3H)-one]", "values": [{"measurement": "microsomal CLint", "setting": "[1]", "value": 19.8, "unit": "µL/min/mg"}, {"measurement": "microsomal CLint", "setting": "[2]", "value": 7.5, "unit": "µL/min/mg"}, {"measurement": "fraction unbound", "setting": "[3]", "value": 0.11}, {"measurement": "microsomal CLint", "setting": "[4]", "value": 24.7, "unit": "µL/min/mg"}, {"measurement": "solubility kinetic", "setting": "[5]", "value": 93.3, "unit": "µM"}, {"measurement": "cell uptake", "setting": "[6]", "value": "uptake of the parent compounds in a time-dependent manner"}, {"measurement": "stability in cellular culture (metabolites in cells or media)", "setting": "[6]", "value": "no metabolites detected"}]}
{"smiles": "O=c1[nH]cnc2c(-n3cc(CCN4CCC5(CCc6ccccc65)CC4)cn3)cccc12", "note": "[Compound 41]", "values": [{"measurement": "cell uptake", "setting": "[6]", "value": "uptake of the parent compounds in a time-dependent manner"}, {"measurement": "stability in cellular culture (metabolites in cells or media)", "setting": "[6]", "value": "no metabolites detected"}]}
{"smiles": "CC(C)c1c(-c2cnn(C(C)(C)C)c2)[nH]c2c(C#N)cnn2c1=O", "note": "[Compound 6]", "values": [{"measurement": "EC50", "setting": "[7]", "value": 600, "unit": "nM"}, {"measurement": "EC50", "setting": "[8]", "value": 340, "unit": "nM"}, {"measurement": "EC50", "setting": "[9]", "value": 300, "unit": "nM"}]}
